34 molecules from patent publication US20250002464A1, “NOVEL COMPOUND AND PHARMACEUTICAL COMPOSITION COMPRISING SAME” (SAPIENSBIO INC., priority 2021, published 2025) can be followed below.

In the assay the test system is α-SMA. Briefly: α-SMA expression inhibitory ability in MRC5 cell line (Western blotting). It counts as cell-based. The conditions noted are these: TGF-β1 (10 ng/mL), 72 hours, relative to TGF-β1 only. In a few lines:
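MRC5 cells given compound at 10 μM, then TGF-β1 (10 ng/mL) 2 h later; after 72 h, lysates probed for α-SMA by Western blot. Inhibition is α-SMA level relative to TGF-β1 alone, binned A ≥70%, B 50–<70%, C <50%.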
(Immunoblotting shows a protein as a band on a membrane.)

As a reminder, the inhibition is how much of the control response was suppressed. The low end stands for a weak effect, the high end for a strong effect. With `O=C(CCN1CCCCC1)N1CCN(c2ccncc2)c2ccccc21` [Compound 159, 3-(piperidin-1-yl)-1-(4-(pyridin-4-yl)-3,4-dihydroquinoxaline-1(2H)-yl)propan-1-one], the inhibition at 10 µM is below 50%.

For `O=C(CCN1CCCC1)N1CCN(CC2CC2)c2ccccc21` [Compound 161, 1-(4-(cyclopropylmethyl)-3,4-dihydroquinoxaline-1(2H)-yl)-3-(pyrrolidin-1-yl)propan-1-one], the inhibition at 10 µM is below 50%.

The molecule `O=C(CCN1CCCCC1)N1CCN(CC2CC2)c2ccccc21` [Compound 162, 1-(4-(cyclopropylmethyl)-3,4-dihydroquinoxaline-1(2H)-yl)-3-(piperidin-1-yl)propan-1-one] yielded an inhibition at 10 µM below 50%.

For `CN1CCN(CCC(=O)N2CCN(CC3CC3)c3ccccc32)CC1` [Compound 163, 1-(4-(cyclopropylmethyl)-3,4-dihydroquinoxaline-1(2H)-yl)-3-(4-methylpiperazin-1-yl)propan-1-one], the inhibition at 10 µM is below 50%.

The molecule `CC(C(=O)N1CCN(CC2CC2)c2ccccc21)N1CCCCC1` (stereo not shown) [Compound 165, 1-(4-(cyclopropylmethyl)-3,4-dihydroquinoxaline-1(2H)-yl)-2-(piperidin-1-yl)propan-1-one] returned an inhibition at 10 µM below 50%.

In the case of `CC(C(=O)N1CCN(CC2CC2)c2ccccc21)N1CCN(C)CC1` (stereo not shown) [Compound 166, 1-(4-(cyclopropylmethyl)-3,4-dihydroquinoxaline-1(2H)-yl)-2-(4-methylpiperazin-1-yl)propan-1-one], the inhibition at 10 µM was below 50%.

As for `CC(C)CN1CCN(C(=O)CCN2CCCCC2)c2ccccc21` [Compound 169, 1-(4-isobutyl-3,4-dihydroquinoxaline-1(2H)-yl)-3-(piperidin-1-yl)propan-1-one], the inhibition at 10 µM is 50 to 70%.

The molecule `CC(C)CN1CCN(C(=O)CCN2CCN(C)CC2)c2ccccc21` [Compound 170, 1-(4-isobutyl-3,4-dihydroquinoxaline-1(2H)-yl)-3-(4-methylpiperazin-1-yl)propan-1-one di L-tartrate] gave an inhibition at 10 µM of 50 to 70%.

Regarding `CC(C)CN1CCN(C(=O)C(C)N2CCCCC2)c2ccccc21` (stereo not shown) [Compound 172, 1-(4-isobutyl-3,4-dihydroquinoxaline-1(2H)-yl)-2-(piperidin-1-yl)propan-1-one], the inhibition at 10 µM was below 50%.

`CC(C)CN1CCN(C(=O)C(C)N2CCN(C)CC2)c2ccccc21` (stereo not shown) [Compound 173, 1-(4-isobutyl-3,4-dihydroquinoxaline-1(2H)-yl)-2-(4-methylpiperazin-1-yl)propan-1-one] had an inhibition at 10 µM of 50 to 70%.

As for `CC(C)CN1CCN(C(=O)CN2CCCC2)c2ccccc21` [Compound 174, 1-(4-isobutyl-3,4-dihydroquinoxaline-1(2H)-yl)-2-(pyrrolidin-1-yl)ethan-1-one], the inhibition at 10 µM was 50 to 70%.

Take `CC(C)CN1CCN(C(=O)CN2CCCCC2)c2ccccc21` [Compound 175, 1-(4-isobutyl-3,4-dihydroquinoxaline-1(2H)-yl)-2-(piperidin-1-yl)ethan-1-one]: the inhibition at 10 µM is below 50%.

Take `CC(C)CN1CCN(C(=O)CN2CCN(C)CC2)c2ccccc21` [Compound 176, 1-(4-isobutyl-3,4-dihydroquinoxaline-1(2H)-yl)-2-(4-methylpiperazin-1-yl)ethan-1-one]: the inhibition at 10 µM was below 50%.

Consider `CC(C)N1CCN(C(=O)CCN2CCCC2)c2ccccc21` [Compound 177, 1-(4-isopropyl-3,4-dihydroquinoxaline-1(2H)-yl)-3-(pyrrolidin-1-yl)propan-1-one], for which the inhibition at 10 µM was below 50%.

`CC(C)N1CCN(C(=O)CCN2CCCCC2)c2ccccc21` [Compound 178, 1-(4-isopropyl-3,4-dihydroquinoxaline-1(2H)-yl)-3-(piperidin-1-yl)propan-1-one]: the inhibition at 10 µM is below 50%.

Take `CC(C)N1CCN(C(=O)CCN2CCN(C)CC2)c2ccccc21` [Compound 179, 1-(4-isopropyl-3,4-dihydroquinoxaline-1(2H)-yl)-3-(4-methylpiperazin-1-yl)propan-1-one]: the inhibition at 10 µM is below 50%.

Take `CC(C(=O)N1CCN(C(C)C)c2ccccc21)N1CCCCC1` (stereo not shown) [Compound 181, 1-(4-isopropyl-3,4-dihydroquinoxaline-1(2H)-yl)-2-(piperidin-1-yl)propan-1-one]: the inhibition at 10 µM was below 50%.

`CC(C(=O)N1CCN(C(C)C)c2ccccc21)N1CCN(C)CC1` (stereo not shown) [Compound 182, 1-(4-isopropyl-3,4-dihydroquinoxaline-1(2H)-yl)-2-(4-methylpiperazin-1-yl)propan-1-one] came in with an inhibition at 10 µM below 50%.

`CC(C)N1CCN(C(=O)CN2CCCCC2)c2ccccc21` [Compound 184, 1-(4-isopropyl-3,4-dihydroquinoxaline-1(2H)-yl)-2-(piperidin-1-yl)ethan-1-one] came in with an inhibition at 10 µM below 50%.

Turning to `O=C(CCN1CCCC1)N1CCN(C2CCCCC2)c2ccccc21` [Compound 186, 1-(4-cyclohexyl-3,4-dihydroquinoxaline-1(2H)-yl)-3-(pyrrolidin-1-yl)propan-1-one], the inhibition at 10 µM lay in the range of 50 to 70%.

The molecule `O=C(CCN1CCCCC1)N1CCN(C2CCCCC2)c2ccccc21` [Compound 187, 1-(4-cyclohexyl-3,4-dihydroquinoxaline-1(2H)-yl)-3-(piperidin-1-yl)propan-1-one] registered an inhibition at 10 µM of at least 70%.

Consider `CN1CCN(CCC(=O)N2CCN(C3CCCCC3)c3ccccc32)CC1` [Compound 188, 1-(4-cyclohexyl-3,4-dihydroquinoxaline-1(2H)-yl)-3-(4-methylpiperazin-1-yl)propan-1-one], for which the inhibition at 10 µM lay in the range of 50 to 70%.

In the case of `CC(C(=O)N1CCN(C2CCCCC2)c2ccccc21)N1CCCCC1` (stereo not shown) [Compound 191, 1-(4-cyclohexyl-3,4-dihydroquinoxaline-1(2H)-yl)-2-(piperidin-1-yl)propan-1-one], the inhibition at 10 µM lay in the range of 50 to 70%.

In the case of `CC(C(=O)N1CCN(C2CCCCC2)c2ccccc21)N1CCN(C)CC1` (stereo not shown) [Compound 192, 1-(4-cyclohexyl-3,4-dihydroquinoxaline-1(2H)-yl)-2-(4-methylpiperazin-1-yl)propan-1-one], the inhibition at 10 µM is below 50%.

Regarding `O=C(CN1CCCC1)N1CCN(C2CCCCC2)c2ccccc21` [Compound 193, 1-(4-cyclohexyl-3,4-dihydroquinoxaline-1(2H)-yl)-2-(pyrrolidin-1-yl)ethan-1-one], the inhibition at 10 µM was below 50%.

The molecule `O=C(CN1CCCCC1)N1CCN(C2CCCCC2)c2ccccc21` [Compound 194, 1-(4-cyclohexyl-3,4-dihydroquinoxaline-1(2H)-yl)-2-(piperidin-1-yl)ethan-1-one] registered an inhibition at 10 µM below 50%.

The molecule `O=C(CCN1CCCC1)N1CCN(C(=O)c2ccccc2)c2ccccc21` [Compound 196, 1-(4-benzoyl-3,4-dihydroquinoxaline-1(2H)-yl)-3-(pyrrolidin-1-yl)propan-1-one] returned an inhibition at 10 µM below 50%.

`CN1CCN(CCC(=O)N2CCN(C(=O)c3ccccc3)c3ccccc32)CC1` [Compound 198, 1-(4-benzoyl-3,4-dihydroquinoxaline-1(2H)-yl)-3-(4-methylpiperazin-1-yl)propan-1-one] had an inhibition at 10 µM below 50%.

Regarding `CC(C(=O)N1CCN(C(=O)c2ccccc2)c2ccccc21)N1CCCC1` (stereo not shown) [Compound 199, 1-(4-benzoyl-3,4-dihydroquinoxaline-1(2H)-yl)-2-(pyrrolidin-1-yl)propan-1-one], the inhibition at 10 µM was below 50%.

Molecule `CC(C(=O)N1CCN(C(=O)c2ccccc2)c2ccccc21)N1CCCCC1` (stereo not shown) [Compound 200, 1-(4-benzoyl-3,4-dihydroquinoxaline-1(2H)-yl)-2-(piperidin-1-yl)propan-1-one] returned an inhibition at 10 µM below 50%.

`CC(C(=O)N1CCN(C(=O)c2ccccc2)c2ccccc21)N1CCN(C)CC1` (stereo not shown) [Compound 201, 1-(4-benzoyl-3,4-dihydroquinoxaline-1(2H)-yl)-2-(4-methylpiperazin-1-yl)propan-1-one]: the inhibition at 10 µM is below 50%.

Regarding `O=C(CN1CCCC1)N1CCN(C(=O)c2ccccc2)c2ccccc21` [Compound 202, 1-(4-benzoyl-3,4-dihydroquinoxaline-1(2H)-yl)-2-(pyrrolidin-1-yl)ethan-1-one], the inhibition at 10 µM is below 50%.

In turn, `O=C(CN1CCCCC1)N1CCN(C(=O)c2ccccc2)c2ccccc21` [Compound 203, 1-(4-benzoyl-3,4-dihydroquinoxaline-1(2H)-yl)-2-(piperidin-1-yl)ethan-1-one] came in with an inhibition at 10 µM below 50%.

`CN1CCN(CC(=O)N2CCN(C(=O)c3ccccc3)c3ccccc32)CC1` [Compound 204, 1-(4-benzoyl-3,4-dihydroquinoxaline-1(2H)-yl)-2-(4-methylpiperazin-1-yl)ethan-1-one]: the inhibition at 10 µM was below 50%.
